Measurements from patent publication US4657927A, “Malonato platinum compounds” (Research Corporation, priority 1983, dated 1987).

Experiments:
[1] = test system: Walker 256 Carcinosarcoma; assay: Confirmatory antitumor test, Walker 256 Carcinosarcoma (Table III); type: in vivo, Rat; conditions: single injection day 1 in oil, i.p.
Description: (§1) Confirmatory tests of antitumor activity against the Walker 256 Carcinosarcoma in rats, and the ADJ/PC6A tumor in mice were conducted. The initial test results are shown in Table III and confirm the potent action of the compounds of the invention against these other tumor systems.

Sarcoma 180 [2] = assay: Antitumor activity, solid sarcoma 180 tumor, T/C of tumor weights at day 10 (Table I); type: in vivo, female Swiss white mice
Description: The compounds of the invention were tested for antitumor activity, i.e., for sensitivity to a planar dsp^2 platinum(II) coordination compound or an octahedral d^2 sp^3 platinum(IV) coordination compound using our standard screening tumor, solid sarcoma 180 tumor in female Swiss white mice, following standard protocols for this testing as set by the National Cancer Institute. (Cancer Chemotherapy Rep., 25 (1962)).
For these tests an S 180 tumor taken from a sacrificed mouse was disected free of superfluous tissue and cut under sterile conditions into approximately 10 milligram size pieces. These tissue pieces were then implanted by trocar in the left axillary region, subcutaneously, in new mice. The mice were, on the average, approximately four weeks old and weighed 18-20 grams. Taking day 0 as the day of implant, the animals were sacrificed on day 10. The tumors were excised and weighed and the ratio of the weights of the tumors in mice in the treated animals to the control set of animals was obtained. This ratio, multiplied by 100, is given as the T/C ratio in Table I.
For the first set of tests the coordination compound was freshly dissolved in sterile distilled water and injected intraperitoneally on day 1 into each of the test mice. The volume of the injection was usually 1/2 ml. In some cases, in order to get an active dose into the animal where the chemical was not soluble in this amount of solvent, a fine dispersion was prepared of the dose needed for the test. Thus, some of our test results were obtained on animals where a slurry of the compound was injected. These are so noted in Table I below. In addition, for some of the compounds, there was injected about 1 ml of solution, either in one single injection, or in 2 injections given a few hours apart of 1/2 ml each. These injections were initially given in 4 different dose levels for each new compound with 6 mice in each dose level. The tests covered a dose range from a low ineffective dose, to an upper dose level which produced some deaths within the time period of the experiment.

Sarcoma 180 [3] = assay: Large Sarcoma 180 regressions, injection on day 8 (Table II); type: in vivo, female Swiss white mice; conditions: single i.p. injection on day 8, H2O solution
Description: In addition to the day 1 injections described above, in a number of case injections were delayed until day 8 of tumor growth. In these cases the tumor was usually at least larger than 1/2 gm, as estimated by palpation. The animals were then injected and observed for a period of approximately 60 days. Activity was measured by the number of animals whose tumors had regressed to the vanishing point, while still allowing the animal to survive for this time period. Such test results are described in TABLE II below.

ADJ/PC6A = assay: Confirmatory antitumor test, ADJ/PC6A tumor (Table III); type: in vivo, Mouse; conditions: single injection day 25 in oil, i.p.
Description: as §1

L1210 = assay: Confirmatory antitumor test at the National Cancer Institute, L1210 (Table IV); type: in vivo, Mice
Source text: Samples of the malonato diammine and malonato ethylene diamine complexes of platinum(II) were submitted to the Drug Research and Development Branch of the National Cancer Institute for screening for antitumor activity against the L1210 tumor in mice. They confirm the activity of the compounds of the invention.

[4] = 10 mg/kg, single i.p. injection day 1, solution in H2O
[5] = 20 mg/kg, single i.p. injection day 1, solution in H2O
[6] = 40 mg/kg, single i.p. injection day 1, solution in H2O
[7] = 45 mg/kg, single i.p. injection day 1, solution in H2O
[8] = 50 mg/kg, single i.p. injection day 1, solution in H2O
[9] = 55 mg/kg, single i.p. injection day 1, solution in H2O
[10] = 60 mg/kg, single i.p. injection day 1, solution in H2O
[11] = 80 mg/kg, single i.p. injection day 1, solution in H2O
[12] = dose level 60 (unit not given), single i.p. injection day 1
[13] = dose level 100 (unit not given), single i.p. injection day 1
[14] = dose level 120 (unit not given), single i.p. injection day 1

Compound: NCCN.O=C([O-])CC(=O)[O-].[Pt+2] [malonatoethylenediamineplatinum (II)]
- % Inhibition ([1]; dose 10 (unit not given)): 1%
- Deaths ([1]; dose 10 (unit not given)): 0
- % Inhibition ([1]; dose 20 (unit not given)): 25%
- Deaths ([1]; dose 20 (unit not given)): 0
- % Inhibition ([1]; dose 40 (unit not given)): 100%
- Deaths ([1]; dose 40 (unit not given)): 0
- % Inhibition ([1]; dose 80 (unit not given)): 100%
- Deaths ([1]; dose 80 (unit not given)): 0
- Deaths ([1]; dose 160 (unit not given)): all
- No. of Deaths (Sarcoma 180 [2]; [4]): 0
- T/C (Sarcoma 180 [2]; [4]): 88
- No. of Deaths (Sarcoma 180 [2]; [5]): 0
- T/C (Sarcoma 180 [2]; [5]): 58
- No. of Deaths (Sarcoma 180 [2]; [6]): 0
- T/C (Sarcoma 180 [2]; [6]): 18
- No. of Deaths (Sarcoma 180 [2]; [7]): 0
- T/C (Sarcoma 180 [2]; [7]): 49
- No. of Deaths (Sarcoma 180 [2]; [8]): 0
- T/C (Sarcoma 180 [2]; [8]): 35
- No. of Deaths (Sarcoma 180 [2]; [9]): 0
- T/C (Sarcoma 180 [2]; [9]): 38
- No. of Deaths (Sarcoma 180 [2]; [10]): 3/6
- T/C (Sarcoma 180 [2]; [10]): 15
- No. of Deaths (Sarcoma 180 [2]; [11]): 3/6
- T/C (Sarcoma 180 [2]; [11]): 24
- No. of Deaths (Sarcoma 180 [2]; [12]): 0
- T/C (Sarcoma 180 [2]; [12]): 80
- No. of Deaths (Sarcoma 180 [2]; dose level 80 (unit not given), single i.p. injection day 1): 0
- No. of Deaths (Sarcoma 180 [2]; [13]): 0
- T/C (Sarcoma 180 [2]; [13]): 85
- No. of Deaths (Sarcoma 180 [2]; [14]): 0
- T/C (Sarcoma 180 [2]; [14]): 50
- Deaths (Sarcoma 180 [3]; 40 mg/kg): 3
- Total Number of Regressions (Sarcoma 180 [3]; 40 mg/kg): 3
- Deaths (Sarcoma 180 [3]; 45 mg/kg): 5
- Total Number of Regressions (Sarcoma 180 [3]; 45 mg/kg): 1
- Deaths (Sarcoma 180 [3]; 50 mg/kg): 4
- Total Number of Regressions (Sarcoma 180 [3]; 50 mg/kg): 2
- Deaths (Sarcoma 180 [3]; 60 mg/kg): 3
- Total Number of Regressions (Sarcoma 180 [3]; 60 mg/kg): 3
- % Inhibition (ADJ/PC6A; dose 4 (unit not given)): 1.3%
- Deaths (ADJ/PC6A; dose 4 (unit not given)): 0
- % Inhibition (ADJ/PC6A; dose 20 (unit not given)): 94%
- Deaths (ADJ/PC6A; dose 20 (unit not given)): 0
- % Inhibition (ADJ/PC6A; dose 100 (unit not given)): 100%
- Deaths (ADJ/PC6A; dose 100 (unit not given)): 0
- Deaths (ADJ/PC6A; dose 500 (unit not given)): all
- % Increase in Lifespan (L1210; 11 mg/kg, daily injections days 1-9, i.p. (repeat test)): 145%
- % Increase in Lifespan (L1210; 12.5 mg/kg, daily injections days 1-9, i.p.): 151%
- % Increase in Lifespan (L1210; 16.5 mg/kg, daily injections days 1-9, i.p. (repeat test)): 160%
- % Increase in Lifespan (L1210; 25 mg/kg, daily injections days 1-9, i.p.): 160%
- % Increase in Lifespan (L1210; 25 mg/kg, daily injections days 1-9, i.p. (repeat test)): 196%
- % Increase in Lifespan (L1210; 37.5 mg/kg, daily injections days 1-9, i.p. (repeat test)): 121%
- % Increase in Lifespan (L1210; 50 mg/kg, daily injections days 1-9, i.p.): 101%
